Results from ChEMBL document CHEMBL1201862, “PubChem BioAssay data set” (2004).
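1) Cells in 96-well plates. 2) Compound, 48 h, 5 concentrations. 3) Linear interpolation between surrounding doses. 4) Unreached endpoint = highest concentration. GI50: concentration for 50% inhibition of growth.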 Calls of active or inactive are those of the source. Rule as the data show it: active = GI50 up to about 1.1 µM and inactive = higher.

Assays:
Assay in all cases: inhibition of tumour cell growth, NCI panel, 48 h
[1] = system: HL-60
[2] = system: Malme-3M
[3] = system: SW-620
[4] = system: NCI-H460
[5] = system: KM12
[6] = system: ACHN
[7] = system: RPMI-8226
[8] = system: CAKI-1
[9] = system: HCC 2998
[10] = system: HOP-92
[11] = system: LOX IMVI
[12] = system: COLO 205
[13] = system: OVCAR-3
[14] = system: UACC-62
[15] = system: HOP-62
[16] = system: SF-539
[17] = system: SK-MEL-5
[18] = system: NCI-H226
[19] = system: SR

Measured: GI50

[N-]=[N+]=NC1CC(n2cc(COCC(F)(F)F)c(=O)[nH]c2=O)OC1CO (stereo not drawn)
inactive: [1] > 100 µM | [2] > 100 µM | [3] > 100 µM | [4] > 100 µM | [5] > 100 µM | [6] > 100 µM | [7] > 100 µM | [8] > 100 µM | [9] > 100 µM | [10] > 100 µM | [11] > 100 µM | [12] > 100 µM | [13] > 100 µM | [14] > 100 µM | [15] > 100 µM | [16] > 100 µM | [17] > 100 µM

Cc1nc(Nc2ccc([N+](=O)[O-])cc2)sc1C(=O)/C=C/c1ccc(N(C)C)cc1
inactive: [1] 76.7 µM | [2] > 100 µM | [3] > 100 µM | [4] 65.2 µM | [5] 57.8 µM | [6] 48.3 µM | [7] 54.1 µM | [8] > 100 µM | [9] 78.3 µM | [10] > 100 µM | [11] 64.7 µM | [12] > 100 µM | [13] > 100 µM | [14] > 100 µM | [15] > 100 µM | [16] 88.9 µM | [17] 50.5 µM

NC(Cc1ccccc1)C(=O)OCN1C(=O)C2C3C=CC(C2C1=O)C1C2C(=O)N(COC(=O)C(N)Cc4ccccc4)C(=O)C2C31 (stereo not drawn)
inactive: [1] 32.2 µM | [3] 23.3 µM | [4] 16.3 µM | [5] 20.7 µM | [6] 26.5 µM | [7] 18.7 µM | [18] 27.7 µM | [10] 41.8 µM | [11] 18.7 µM | [12] 17.9 µM | [13] 28.4 µM | [14] 20.7 µM | [16] 22.5 µM | [17] 18.2 µM

COc1cccc2c1C(=O)C1(O)CCCCC21 (stereo not drawn)
inactive: [1] > 100 µM | [2] > 100 µM | [3] > 100 µM | [4] > 100 µM | [5] > 100 µM | [6] > 100 µM | [7] > 100 µM | [8] > 100 µM | [18] > 100 µM | [9] > 100 µM | [11] > 100 µM | [12] > 100 µM | [13] > 100 µM | [14] > 100 µM | [15] > 100 µM | [16] > 100 µM | [17] > 100 µM

CN(C)CCCNC(=O)N/N=C/c1cccc([N+](=O)[O-])c1
inactive: [2] > 100 µM | [3] > 100 µM | [4] > 100 µM | [5] > 100 µM | [6] > 100 µM | [18] > 100 µM | [11] > 100 µM | [13] > 100 µM | [14] > 100 µM | [16] > 100 µM | [17] > 100 µM

CCCO/S(=N\S(=O)(=O)c1ccccc1)c1ccccc1[N+](=O)[O-] (stereo not drawn)
inactive: [2] > 100 µM | [3] > 100 µM | [4] > 100 µM | [5] > 100 µM | [6] > 100 µM | [7] > 100 µM | [8] > 100 µM | [19] > 100 µM | [18] > 100 µM | [9] > 100 µM | [11] > 100 µM | [12] > 100 µM | [13] > 100 µM | [14] > 100 µM | [15] > 100 µM | [16] > 100 µM | [17] > 100 µM

NC(=O)N1N=C2c3ccccc3SC[C@H]2[C@@H]1c1ccccc1
inactive: [1] 21.3 µM | [2] 26.9 µM | [3] 33.7 µM | [4] 19.1 µM | [5] > 10 µM | [6] 33.3 µM | [7] 33.4 µM | [19] 30 µM | [18] 22.2 µM | [9] 26.9 µM | [11] 17.5 µM | [12] 20.7 µM | [13] 16.9 µM | [15] 25.6 µM | [17] 8.07 µM

CCCCCCCCCCCCCCCCCC(=O)NCCCNCCCNC(=O)CCCCCCCCCCCCCCCCC
inactive: [1] > 100 µM | [2] > 100 µM | [3] > 100 µM | [4] > 100 µM | [6] > 100 µM | [7] > 100 µM | [8] > 100 µM | [18] > 100 µM | [9] > 100 µM | [10] > 100 µM | [11] > 100 µM | [12] > 100 µM | [13] 37.3 µM | [14] > 100 µM | [15] > 100 µM | [17] > 100 µM

CC(C)(C)c1cc(CCC(=O)Nc2ccc(Cl)cc2)nc(S)n1
inactive: [1] > 100 µM | [2] > 100 µM | [3] > 100 µM | [4] > 100 µM | [5] > 100 µM | [6] > 100 µM | [7] > 100 µM | [8] > 100 µM | [18] > 100 µM | [9] > 100 µM | [11] > 100 µM | [12] > 100 µM | [13] > 100 µM | [14] > 100 µM | [15] > 100 µM | [16] > 100 µM | [17] > 100 µM

O=c1[nH]nc2ccccc2c1Cl
inactive: [2] 16.2 µM | [3] 13.8 µM | [4] 18.5 µM | [5] 9.44 µM | [6] 16.3 µM | [7] 3.13 µM | [8] 3.18 µM | [18] 24.6 µM | [9] 1.52 µM | [10] 3.08 µM | [11] 17.6 µM | [12] 11.4 µM | [13] 2.65 µM | [14] 12.8 µM | [15] 21 µM | [16] 15.6 µM | [17] > 10 µM

COc1ccc(/C=C2/C[N+](C)(C)C/C(=C/c3ccc(OC)cc3)C2=O)cc1
inactive: [1] 14.7 µM | [2] 22.5 µM | [3] 42.7 µM | [4] 38.2 µM | [5] 16 µM | [6] > 100 µM | [7] 5.7 µM | [8] > 100 µM | [18] 20.9 µM | [9] 15.3 µM | [10] 52.1 µM | [11] 88.1 µM | [12] 16.9 µM | [13] 30 µM | [14] 16.3 µM | [15] > 100 µM | [16] 40 µM | [17] 23.4 µM

O/N=C1/CCCC/C1=C\c1ccc(Cl)c(Cl)c1
inactive: [1] 3.8 µM | [3] 46.6 µM | [4] 23.9 µM | [6] 28.7 µM | [8] 32.5 µM | [9] 29 µM | [11] 21 µM | [12] 19.7 µM | [13] 21.8 µM | [14] 29.7 µM | [15] 49 µM | [16] 19 µM | [17] 16.1 µM

COP1(=O)CC2C(Cl)(Cl)C2(C)C1 (stereo not drawn)
inactive: [1] > 100 µM | [3] > 100 µM | [4] > 100 µM | [5] > 100 µM | [7] > 100 µM | [18] > 100 µM | [9] > 100 µM | [11] > 100 µM | [12] > 100 µM | [13] > 100 µM | [14] > 100 µM | [15] > 100 µM | [16] > 100 µM | [17] > 100 µM
